pEC50: −log10 of the molar value.
How the values were obtained:
TZM = assay: Cytotoxicity against human TZM-bl cells measured upto 0.1 uM; format: toxicity, cell-based
[1] = system: Human immunodeficiency virus 1; assay: Antiviral activity against HIV1 in human TZM-bl cells transfected with firefly luciferase and beta-galactosidase reporter genes assessed as activation of LTR-mediated transcriptional activity incubated for 24 hrs by luciferase reporter gene assay; format: functional, organism-based; conditions: Human immunodeficiency virus 1, TZM-bl

pEC50 [1] | SMILES | Activity (TZM)
8.12 | CC/C=C\C/C=C\C/C=C\CCCCCCCC(=O)O[C@@]12[C@H](OC(=O)c3ccccc3)[C@@H](C)[C@@]3(O)[C@@H](C=C(CO)C[C@]4(O)C(=O)C(C)=C[C@@H]34)[C@@H]1C2(C)C | Non-Toxic
7.74 | CCCCC/C=C\CCC(=O)O[C@@H]1[C@@H](C)[C@@]2(O)[C@@H](C=C(CO)C[C@]3(O)C(=O)C(C)=C[C@@H]23)[C@@H]2C(C)(C)[C@]12OC(=O)c1ccccc1 | Non-Toxic
8.82 | CCCCCCCC(=O)O[C@@]12[C@H](OC(=O)c3ccccc3)[C@@H](C)[C@@]3(O)[C@@H](C=C(CO)C[C@]4(O)C(=O)C(C)=C[C@@H]34)[C@@H]1C2(C)C | –
7.89 | CCCCC/C=C\C/C=C\CCCCCCCC(=O)O[C@@]12[C@H](OC(=O)c3ccccc3)[C@@H](C)[C@@]3(O)[C@@H](C=C(CO)C[C@]4(O)C(=O)C(C)=C[C@@H]34)[C@@H]1C2(C)C | Non-Toxic
7.80 | CCCCCCCC/C=C\CCCCCCCC(=O)O[C@@]12[C@H](OC(=O)c3ccccc3)[C@@H](C)[C@@]3(O)[C@@H](C=C(CO)C[C@]4(O)C(=O)C(C)=C[C@@H]34)[C@@H]1C2(C)C | Non-Toxic
8.00 | CCCCC/C=C/C/C=C\C/C=C\CCCCC(=O)O[C@@]12[C@H](OC(=O)c3ccccc3)[C@@H](C)[C@@]3(O)[C@@H](C=C(CO)C[C@]4(O)C(=O)C(C)=C[C@@H]34)[C@@H]1C2(C)C | Non-Toxic
7.92 | C=C(C)[C@]12C[C@@H](COC(C)=O)[C@@]34OC5(O[C@@H]1[C@@H]3[C@@H]1O[C@]1(CO)[C@@H](O)[C@@]1(O)[C@H]4[C@H]([C@H](C)[C@@H]1OCc1ccccc1)[C@H](C)C[C@H](OCc1ccccc1)CCCC[C@H]5O)O2 | –
9.03 | CCCCCCC(=O)O[C@@]12[C@H](OC(=O)c3ccccc3)[C@@H](C)[C@@]3(O)[C@@H](C=C(CO)C[C@]4(O)C(=O)C(C)=C[C@@H]34)[C@@H]1C2(C)C | –
8.00 | CCC(=O)O[C@@]12[C@H](OC(=O)c3ccccc3)[C@@H](C)[C@@]3(O)[C@@H](C=C(CO)C[C@]4(O)C(=O)C(C)=C[C@@H]34)[C@@H]1C2(C)C | Non-Toxic

The remaining lines, values behind:

SMILES | pEC50 [1] | Activity (TZM)
CCCCCCCCCCCCCCCCCC(=O)O[C@@]12[C@H](OC(=O)c3ccccc3)[C@@H](C)[C@@]3(O)[C@@H](C=C(CO)C[C@]4(O)C(=O)C(C)=C[C@@H]34)[C@@H]1C2(C)C | – | Non-Toxic
CCCCCCCC(=O)O[C@@]12[C@H](OC(=O)c3ccccc3)[C@@H](C)[C@]3(O)[C@@H]4C=C(C)C(=O)[C@@]4(O)[C@H](O)C(CO)=C[C@H]3[C@@H]1C2(C)C | 7.92 | –
C=C(C)[C@]12C[C@@H](COCc3ccccc3)[C@@]34OC5(CCCCC[C@@H](OCc6ccccc6)C[C@@H](C)[C@H]6[C@H](C)[C@H](OCc7ccccc7)[C@@](O)([C@H](O)[C@@]7(CO)O[C@H]7[C@H]3[C@H]1O5)[C@@H]64)O2 | 8.41 | –
C=C(C)[C@]12CC[C@@]34OC(C)(O[C@@H]1[C@@H]3[C@@H]1O[C@]1(CO)[C@@H](O)[C@]1(O)[C@@H](OCc3ccccc3)[C@@H](C)C[C@@H]41)O2 | 9.85 | –
CC/C=C\C/C=C\CCC(=O)O[C@@]12[C@H](OC(=O)c3ccccc3)[C@@H](C)[C@@]3(O)[C@@H](C=C(CO)C[C@]4(O)C(=O)C(C)=C[C@@H]34)[C@@H]1C2(C)C | 8.49 | –
CCCCC/C=C/CCC(=O)O[C@@]12[C@H](OC(=O)c3ccccc3)[C@@H](C)[C@@]3(O)[C@@H](C=C(CO)C[C@]4(O)C(=O)C(C)=C[C@@H]34)[C@@H]1C2(C)C | 8.24 | Non-Toxic
C=C(C)[C@]12C[C@@H](C)[C@@]34O[C@@](CCCCCCCCC)(O[C@@H]1[C@@H]3[C@@H]1O[C@]1(CO)[C@@H](O)[C@]1(O)C(=O)C(C)=C[C@H]14)O2 | 8.05 | –
CCCCC/C=C\CCC(=O)O[C@@]12[C@H](OC(=O)c3ccccc3)[C@@H](C)[C@@]3(O)[C@@H](C=C(CO)C[C@]4(O)C(=O)C(C)=C[C@@H]34)[C@@H]1C2(C)C | 8.38 | Non-Toxic
C=C(C)[C@]12C[C@@H](COCc3ccccc3)[C@@]34OC5(CCCCCCC[C@@H](C)[C@H]6[C@H](C)C(=O)[C@@](O)([C@H](O)[C@@]7(CO)O[C@H]7[C@H]3[C@H]1O5)[C@@H]64)O2 | 8.43 | –
C=C(C)[C@]12CC[C@@]34OC(C)(O[C@@H]1[C@@H]3[C@@H]1O[C@]1(CO)[C@@H](O)[C@]1(O)C(=O)[C@@H](C)C[C@@H]41)O2 | 8.43 | –
C=C(C)[C@@]12O[C@]3(/C=C/C=C/CCCCCCCCC)O[C@@H]1[C@@H]1[C@@H]4O[C@]4(CO)[C@@H](O)[C@]4(O)C(=O)C(C)=C[C@H]4[C@@]1(O3)[C@H](C)[C@H]2OC(C)=O | 9.41 | –
C=C(C)[C@]12C[C@@H](C)[C@@]34OC5(CCCCCCC[C@@H](C)[C@H]6[C@H](C)[C@H](OCc7ccccc7)[C@@](O)([C@H](O)[C@@]7(CO)O[C@H]7[C@H]3[C@H]1O5)[C@@H]64)O2 | 8.57 | –
C=C(C)[C@]12C[C@@H](C)[C@@]34O[C@]5(CCCCCCC[C@H](C)[C@H]6[C@H](C)C(=O)[C@@](O)([C@H](O)[C@@]7(CO)O[C@H]7[C@H]3[C@H]1O5)[C@@H]64)O2 | 8.16 | –
CCCCCCCCCC(=O)O[C@@]12[C@H](OC(=O)c3ccccc3)[C@@H](C)[C@@]3(O)[C@@H](C=C(CO)C[C@]4(O)C(=O)C(C)=C[C@@H]34)[C@@H]1C2(C)C [STELLERARIN] | 9.13 | –
C=C(C)[C@]12C[C@@H](COC(C)=O)[C@@]34OC5(O[C@@H]1[C@@H]3[C@@H]1O[C@]1(CO)[C@@H](O)[C@@]1(O)[C@H]4[C@H]([C@H](C)[C@@H]1OCc1ccccc1)[C@H](C)CCCCCC[C@H]5O)O2 | 9.48 | –

Reference: ChEMBL document CHEMBL5038662, “Isolation, Synthesis, and Structure-Activity Relationship Study on Daphnane and Tigliane Diterpenes as HIV Latency-Reversing Agents” (J Med Chem, 2022)
